According to paper PMC6340882, “Targeting protein kinase CK2 and CDK4/6 pathways with a multi-kinase inhibitor ON108110 suppresses pro-survival signaling and growth in mantle cell lymphoma and T-acute lymphoblastic leukemia” (Oncotarget, 2018):

Experiments:
CDK4/CyclinD1 = CDK4/CyclinD1 (Homo sapiens, UniProt P11802); assay: Kinase panel profiling (Reaction Biology Corp); assay type: biochemical; conditions: CDK4/CyclinD1, kinase inhibition profile
Procedure: (§1) Initial testing of ON108110 against a panel of 285 functional kinases was performed by Reaction Biology Corp (Malvern, PA). Recombinant CDK4/CYCLIN D1 or CK2α1 were mixed with their respective synthetic peptide substrates (10ng) and incubated with DMSO or increasing concentrations of ON108110 in 20μl kinase buffer [50mM Tris-HCl (pH 7.5), 10mM MgCl2, 1mM EGTA, 2mM DTT and 0.01% NP-40] for 30 min. at room temperature. Kinase reactions were carried out for 20 min at 30°C in the presence of 5μl of substrate-ATP mixture (1μg RB, 20μM ATP, 20μCi γ-^32P-ATP). The reactions were incubated at 30°C for 20 minutes, terminated by addition of 0.5M O-phosphoric acid and 10μl of the reaction mixture was spotted on P-30 Filtermat membranes (Wallac #1450-523). The filtermat was air-dried, blocked with methanol for 2 minutes followed by three washes with 75mM phosphoric acid. The filtermat was then air-dried and analyzed using a phosphoimager. Densitometric values were plotted as a function of log drug concentration using Prism 4 GraphPad software and the IC50 values determined by plotting sigmoidal non-linear regression curves with variable slope (n=3).

CDK4/CyclinD3 = CDK4/CyclinD3 (Homo sapiens, UniProt P11802); assay: Kinase panel profiling (Reaction Biology Corp); assay type: biochemical; conditions: CDK4/CyclinD3, kinase inhibition profile
Chain of CDK4/CyclinD3 (P11802 whole entry): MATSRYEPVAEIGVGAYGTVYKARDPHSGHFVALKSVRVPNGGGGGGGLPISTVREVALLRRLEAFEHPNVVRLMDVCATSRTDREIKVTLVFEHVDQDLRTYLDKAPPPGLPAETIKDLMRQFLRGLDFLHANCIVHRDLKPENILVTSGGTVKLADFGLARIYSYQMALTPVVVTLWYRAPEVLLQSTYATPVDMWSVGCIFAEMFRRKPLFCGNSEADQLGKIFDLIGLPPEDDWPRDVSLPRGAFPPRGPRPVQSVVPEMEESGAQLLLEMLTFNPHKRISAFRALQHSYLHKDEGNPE
Chain of CDK4/CyclinD3 (P30281 whole entry partner): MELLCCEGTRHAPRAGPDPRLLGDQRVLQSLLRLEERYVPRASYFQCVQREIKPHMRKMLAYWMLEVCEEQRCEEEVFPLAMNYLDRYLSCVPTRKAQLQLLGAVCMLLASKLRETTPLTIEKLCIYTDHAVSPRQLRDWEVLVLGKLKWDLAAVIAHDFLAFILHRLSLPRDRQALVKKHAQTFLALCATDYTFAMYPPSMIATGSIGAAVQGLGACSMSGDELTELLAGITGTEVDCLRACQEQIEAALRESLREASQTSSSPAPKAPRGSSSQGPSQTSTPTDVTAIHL
Procedure: as §1

CDK5/P25 = CDK5/P25 (Homo sapiens, UniProt Q00535); assay: Kinase panel profiling (Reaction Biology Corp); assay type: biochemical; conditions: CDK5/P25, kinase inhibition profile
Chain of CDK5/P25 (Q00535 whole entry): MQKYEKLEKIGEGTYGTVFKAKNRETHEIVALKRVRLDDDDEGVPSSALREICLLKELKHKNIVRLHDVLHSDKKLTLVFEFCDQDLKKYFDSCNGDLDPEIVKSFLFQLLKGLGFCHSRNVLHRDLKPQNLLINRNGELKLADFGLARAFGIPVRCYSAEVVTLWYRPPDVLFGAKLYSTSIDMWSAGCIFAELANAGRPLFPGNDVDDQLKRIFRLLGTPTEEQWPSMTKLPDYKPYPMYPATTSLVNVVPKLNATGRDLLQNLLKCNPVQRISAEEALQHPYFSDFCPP
Chain of CDK5/P25 (Q15078 99-307 partner limits assumed): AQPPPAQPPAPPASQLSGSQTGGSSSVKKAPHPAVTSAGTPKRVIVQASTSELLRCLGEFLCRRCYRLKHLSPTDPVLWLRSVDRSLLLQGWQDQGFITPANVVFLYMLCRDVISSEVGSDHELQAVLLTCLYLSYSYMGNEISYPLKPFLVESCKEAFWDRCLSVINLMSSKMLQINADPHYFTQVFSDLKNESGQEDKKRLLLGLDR
Procedure: as §1

CDK6/CyclinD1 = CDK6/CyclinD1 (Homo sapiens, UniProt Q00534); assay: Kinase panel profiling (Reaction Biology Corp); assay type: biochemical; conditions: CDK6/CyclinD1, kinase inhibition profile
Chain of CDK6/CyclinD1 (Q00534 whole entry): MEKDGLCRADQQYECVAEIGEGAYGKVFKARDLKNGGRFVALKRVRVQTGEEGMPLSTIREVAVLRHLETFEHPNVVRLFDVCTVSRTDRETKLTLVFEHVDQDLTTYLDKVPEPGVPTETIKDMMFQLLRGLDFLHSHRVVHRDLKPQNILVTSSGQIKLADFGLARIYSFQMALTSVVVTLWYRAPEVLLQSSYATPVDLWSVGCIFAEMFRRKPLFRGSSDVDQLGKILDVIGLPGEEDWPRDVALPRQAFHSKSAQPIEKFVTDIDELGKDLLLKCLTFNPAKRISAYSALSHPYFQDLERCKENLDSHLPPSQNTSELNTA
Chain of CDK6/CyclinD1 (P24385 whole entry partner): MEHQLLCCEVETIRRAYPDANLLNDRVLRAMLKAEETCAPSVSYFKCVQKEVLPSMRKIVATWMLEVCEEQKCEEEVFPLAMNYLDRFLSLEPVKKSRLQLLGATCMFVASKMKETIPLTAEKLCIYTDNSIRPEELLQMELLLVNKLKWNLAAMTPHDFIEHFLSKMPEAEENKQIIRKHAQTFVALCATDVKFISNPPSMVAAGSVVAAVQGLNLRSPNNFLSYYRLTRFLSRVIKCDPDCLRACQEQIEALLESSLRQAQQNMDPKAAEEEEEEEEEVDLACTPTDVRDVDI
Procedure: as §1

CDK6/CyclinD3 = CDK6/CyclinD3 (Homo sapiens, UniProt Q00534); assay: Kinase panel profiling (Reaction Biology Corp); assay type: biochemical; conditions: CDK6/CyclinD3, kinase inhibition profile
Chain of CDK6/CyclinD3 (Q00534 whole entry): as the sequence (Q00534 whole entry) above
Chain of CDK6/CyclinD3 (P30281 whole entry partner): as the sequence (P30281 whole entry partner) above
Procedure: as §1

CK2α1 = CK2α1 (Homo sapiens, UniProt P68400); assay: Kinase panel profiling (Reaction Biology Corp); assay type: biochemical; conditions: CK2α1, kinase inhibition profile
Chain of CK2α1 (P68400 whole entry): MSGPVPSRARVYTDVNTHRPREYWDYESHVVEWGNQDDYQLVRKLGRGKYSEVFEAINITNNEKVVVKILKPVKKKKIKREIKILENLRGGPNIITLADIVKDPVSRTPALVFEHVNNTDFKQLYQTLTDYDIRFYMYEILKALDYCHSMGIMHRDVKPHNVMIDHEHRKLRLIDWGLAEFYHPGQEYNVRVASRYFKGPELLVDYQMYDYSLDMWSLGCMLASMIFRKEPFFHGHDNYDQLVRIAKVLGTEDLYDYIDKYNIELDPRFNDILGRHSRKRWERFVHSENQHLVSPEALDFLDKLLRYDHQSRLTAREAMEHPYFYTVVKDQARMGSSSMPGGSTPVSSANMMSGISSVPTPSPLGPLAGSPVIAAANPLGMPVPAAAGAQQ
Procedure: as §1

CK2α2 = CK2α2 (Homo sapiens, UniProt P19784); assay: Kinase panel profiling (Reaction Biology Corp); assay type: biochemical; conditions: CK2α2, kinase inhibition profile
Chain of CK2α2 (P19784 whole entry): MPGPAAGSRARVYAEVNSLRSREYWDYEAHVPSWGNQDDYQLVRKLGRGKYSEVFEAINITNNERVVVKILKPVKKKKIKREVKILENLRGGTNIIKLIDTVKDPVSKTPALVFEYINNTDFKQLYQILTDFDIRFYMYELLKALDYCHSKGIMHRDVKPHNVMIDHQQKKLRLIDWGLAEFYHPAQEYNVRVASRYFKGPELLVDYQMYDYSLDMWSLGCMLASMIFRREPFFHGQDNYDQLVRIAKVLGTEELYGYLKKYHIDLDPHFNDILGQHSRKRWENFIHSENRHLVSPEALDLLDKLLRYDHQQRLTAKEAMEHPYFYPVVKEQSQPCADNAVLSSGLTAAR
Procedure: as §1

PIM3 = PIM3 (Homo sapiens, UniProt Q86V86); assay: Kinase panel profiling (Reaction Biology Corp); assay type: biochemical; conditions: PIM3, kinase inhibition profile
Procedure: as §1

CDK6 = CDK6 (Homo sapiens, UniProt Q00534); assay: In vitro kinase assay with recombinant protein (32P-ATP, filtermat); assay type: biochemical; conditions: recombinant CDK6, independent in vitro kinase assay, 20μM ATP
Chain of CDK6 (Q00534 whole entry): as the sequence (Q00534 whole entry) above
Chain of CDK6 (P24385 whole entry partner): as the sequence (P24385 whole entry partner) above
Procedure: Figure 1 ON108110 is a multi-kinase inhibitor (A) Structure of the ON108XXO benzo thiazolidinnes chemotype. (B) Structure of ON108110. (C) Calculation of IC50 values against CDK4 and CDK6 and (D) CK2α1 and CK2α2 by ON108110. Recombinant proteins were incubated with the indicated concentrations of ON108110 and subjected to in vitro kinase assays as described in the materials and methods section. Values obtained were plotted as a function of log drug concentration. IC50 values were determined by performing sigmoidal non-linear regression with a variable slope.
as §1, with “The reactions were incubated at 30°C for 20 minutes, terminated by addition of 0.5M O-phosphoric acid and 10μl of the reaction mixture was spotted on P-30 Filtermat membranes (Wallac #1450-523). The filtermat was air-dried, blocked with methanol for 2 minutes followed by three washes with 75mM phosphoric acid.” left out

[1] = system: MCL and ALL cell lines as well as normal PBMCs; assay: GI50 of MCL and ALL cell lines compared to normal PBMCs (Figure 4C); assay type: cell-based, human; conditions: MCL and T-ALL cell lines vs PBMCs in vitro, 72 hours post-treatment
Procedure: Figure 4 CK2 and CDK4 expression in cell lines and primary samples (A) mRNA levels of CK2 subunits in a panel of MCL and T-ALL leukemic cell lines and normal human PBMCs. (B) Protein levels of CK2 subunits and pRB^Ser807/811 in a panel of MCL and T-ALL leukemic cell lines and normal human PBMCs. (C) Calculation of GI50 values against of ON108110 against MCL and ALL cell lines as well as normal PBMCs 72 hours post-treatment.
Cell lines were cultured in RPMI-1640 medium (Thermo Scientific) supplemented with 10% heat inactivated FBS and penicillin-streptomycin at 37°C under humidified conditions and 5% CO2. All cell lines tested negative for mycoplasma. […] Compounds were added 24 hrs post-plating at the indicated concentrations. […]

[2] = system: CDK4/6-specific RB phosphorylation in Granta-519 and CEM cells; assay: Western blot of phosphorylated RB (Ser780 and Ser 807/811); assay type: cell-based, human; conditions: increasing concentrations, 24 hours
Procedure: (§2) Figure 6 Inhibition of CK2/CDK4 mediated signaling by ON108110 (A) CEM and (B) Granta-519 cells were treated with increasing concentrations of ON 108110 for 24 hours. Whole cell extracts were subjected to western blot analysis using antibodies directed against the indicated proteins. GAPDH is shown as a loading control.
(§3) Cells were grown as indicated, lysed in lysis buffer (20mM Tris, pH 8.0/ 137mM NaCl/ 10% glycerol/ 1% NP-40) supplemented with 1X protease and phosphatase inhibitor cocktail on ice and resolved by SDS-PAGE. The proteins were transferred to a nitrocellulose membrane and subjected to Western blot analysis using the indicated antibodies. Proteins were visualized using an Odyssey imaging system (LI-COR Biosciences).

[3] = system: phospho-PTEN Ser380 and AKT Ser129 in CEM and Granta-519 cells; assay: Western blot of CK2-mediated PTEN and AKT phosphorylation; assay type: cell-based, human; conditions: CEM and Granta-519, 24 hours
Procedure: as §2, §3

Chain of CDK4/CyclinD1 (P11802 whole entry): as the sequence (P11802 whole entry) above
Chain of CDK4/CyclinD1 (P24385 whole entry partner): as the sequence (P24385 whole entry partner) above

CC(=O)Oc1ccc(/C=C2\Sc3ccc(F)cc3NC2=O)cc1[N+](=O)[O-] [ON108110]
IC50 (CDK4/CyclinD1): 11 nM
IC50 (CDK4/CyclinD3): 15 nM
IC50 (CDK5/P25): 7 nM
IC50 (CDK6/CyclinD1): 2 nM
IC50 (CDK6/CyclinD3): 24 nM
IC50 (CK2α1): 3 nM
IC50 (CK2α2): 2 nM
IC50 (PIM3): 2 nM
IC50 (CDK6): 10 nM
fold more sensitive compared to PBMCs (IC50 values) [1]: > 100 fold
CDK4/6-specific RB phosphorylation (Ser780 and Ser 807/811) [2]: concentration-dependent inhibition
level of AKT Ser129 [3]: reduction
level of phospho-PTEN Ser380 [3]: lower levels
